According to PubChem BioAssay (NCI):
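Where inhibition never reached the appropriate level, the endpoint shown equals the highest concentration tested. Otherwise, values were interpolated linearly from a five-concentration, 48-hour dose response in 96-well plates. TGI: concentration producing complete growth inhibition.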

Columns and labels:
Assay in all cases: inhibition of tumour cell growth, NCI panel, 48 h
[1] = tested on: SF-539 CNS
[2] = tested on: NCI-H522 lung
[3] = tested on: EKVX NSCLC
[4] = tested on: HOP-92 NSCLC
[5] = tested on: HT29 colon
[6] = tested on: SF-295 CNS
[7] = tested on: K-562 leukemia
[8] = tested on: A549 NSCLC
[9] = tested on: RXF 393 renal
[10] = tested on: SK-MEL-28 melanoma
[11] = tested on: SF-268 CNS
[12] = tested on: NCI/ADR-RES ovarian
[13] = tested on: MDA-MB-435

| SMILES | TGI [1] [µM] | TGI [2] [µM] | TGI [3] [µM] | TGI [4] [µM] | TGI [5] [µM] | TGI [6] [µM] | TGI [7] [µM] | TGI [8] [µM] | TGI [9] [µM] | TGI [10] [µM] | TGI [11] [µM] | TGI [12] [µM] | TGI [13] [µM] |
| --- | --- | --- | --- | --- | --- | --- | --- | --- | --- | --- | --- | --- | --- |
| Cc1nc2ccccc2nc1NS(=O)(=O)c1ccc(N)cc1 | > 100 | > 100 | > 100 | > 100 | > 100 | > 100 | > 100 | > 100 | > 100 | > 100 | > 100 |  |  |
| O=S(=O)(CC1=NC2C=CC=CC2N=C1)NCc1ccccc1 (stereo unspecified) | > 100 | > 100 | > 100 | > 100 | > 100 | > 100 | > 100 | > 100 | > 100 | > 100 | > 100 |  |  |
| CCCOC(=O)c1cc(C(=CCC[C@H]2CC[C@@]3(C)[C@@H](CC[C@@H]4[C@@H]3CC[C@]3(C)[C@@H](C(C)CCCC(C)C)CC[C@@H]43)C2)c2cc(Cl)c(O)c(C(=O)OCCC)c2)cc(Cl)c1O (stereo partly specified) |  |  | > 50 |  | > 50 |  | > 5 |  |  |  | > 50 | > 50 | > 50 |
| Cc1ccc(S(=O)(=O)N(c2ccccc2F)C2CCCCC2O)cc1 (stereo unspecified) | > 100 |  | > 100 |  | > 100 | > 100 | > 100 | > 100 |  | > 100 | > 100 | > 100 | 48.5 |
| NN/C(=N\S(=O)(=O)c1cc(Cl)c(Oc2ccc([N+](=O)[O-])cc2Cl)c(Cl)c1)Nc1ccc(Cl)cc1 | 31.3 |  | 61.2 | 38.9 | 39.1 | 50.4 | > 100 | 41.8 | 28.4 | 48.3 | 34.2 | 67.9 |  |
| CC1C2CC(C(C3C(=O)C4CC3C(C)(C)C4C)C2=O)C1(C)C (stereo unspecified) | > 100 | > 100 | > 100 | > 100 | > 100 | > 100 | > 100 | > 100 | > 100 | > 100 | > 100 |  | > 100 |
| CC(=O)Nc1ccc(-c2nnc(SCC(=O)Nc3ccccc3Cl)o2)cc1 | > 100 | > 100 |  |  | > 100 | > 100 | > 100 | > 100 | > 100 | > 100 | > 100 |  |  |
| CC1=NC(=Cc2ccc(Cl)cc2)C(=O)N1n1c(-c2ccccc2)nc2ccccc2c1=O | > 100 | 43 | > 100 |  | > 100 | > 100 | > 100 | > 100 |  | > 100 | > 100 |  | > 100 |
| COc1ccccc1NC(=O)C(C#N)=C(SC)SC | > 100 | > 100 | > 100 | > 100 | > 100 | > 100 | > 100 | > 100 | > 100 | > 100 | > 100 |  | > 100 |
| CCCCOC(=O)/C(CC(=O)C=C(C)C)=N\NS(=O)(=O)c1ccc(C)cc1 | > 100 | > 100 | > 100 | > 100 | > 100 | > 100 | > 100 | > 100 | > 100 | > 100 | > 100 |  |  |
| Cc1ccc(S(=O)(=O)N/N=C2\C(=O)C3CC2C(Cl)C3Cl)cc1 (stereo unspecified) |  |  |  | > 100 | > 100 | > 100 | > 100 | > 100 |  | > 100 | > 100 |  |  |
| C1=CCN(c2ccccc2)CC1 | > 100 | 30.4 | > 100 | 61.6 | 87.3 | > 100 | > 100 | > 100 | 35.7 | 73.9 | > 100 |  |  |
| COc1ccc(NC(=O)C2=C(SC)C(C#N)C(=O)N=C2N)cc1 (stereo unspecified) | > 100 | 32.1 | > 100 | 69.8 | > 100 | > 100 | > 100 | > 100 | > 100 | > 100 | > 100 |  | > 100 |
| Nc1ccc(N=Nc2ccc(/C=C/c3ccc(N=Nc4ccc(N)c5ccc(S(=O)(=O)O)cc45)cc3S(=O)(=O)O)c(S(=O)(=O)O)c2)c2cc(S(=O)(=O)O)ccc12 | > 100 | > 100 | > 100 | > 100 | > 100 | > 100 | > 100 | > 100 | > 100 | > 100 | > 100 | > 100 |  |
| O=C1/C(=C/c2cccc([N+](=O)[O-])c2)COc2ccccc21 |  | 3.1 | > 92.2 | > 72.8 | 6.85 | > 94.5 | > 28.5 | > 100 | 12.8 | 7.42 | > 80.3 |  |  |
| CCCCCCC(N)(CCCCCC)C(=O)Nn1c(C)ccc1C |  | > 100 | 58.4 |  | > 100 | > 100 | > 100 | 65.3 | > 100 | > 100 | > 100 | > 100 | > 100 |

| SMILES | TGI [1] [µM] | TGI [2] [µM] | TGI [3] [µM] | TGI [4] [µM] | TGI [5] [µM] | TGI [6] [µM] | TGI [7] [µM] | TGI [8] [µM] | TGI [9] [µM] | TGI [10] [µM] | TGI [11] [µM] | TGI [12] [µM] | TGI [13] [µM] |
| --- | --- | --- | --- | --- | --- | --- | --- | --- | --- | --- | --- | --- | --- |
| NC(=S)N/N=C/c1cc(CN2CCOCC2)c(N)cn1 | 84.2 |  | > 100 |  | > 100 | > 100 | > 100 |  | > 100 |  | > 100 | 94.3 | > 100 |
| CCN(CC)CCCCC1CCN(CC(=O)N2c3ccccc3NC(=O)c3ccccc32)CC1 | > 100 | > 100 | > 100 | > 100 | > 100 | > 100 | > 100 | > 100 |  | > 100 | > 100 |  |  |
| CCc1cc(Cc2cc(CC)c(NC(=O)C3=CC(=O)CC(c4ccc(OC)cc4)O3)c(CC)c2Cl)c(Cl)c(CC)c1NC(=O)C1=CC(=O)CC(c2ccc(OC)cc2)O1 (stereo unspecified) | 38.9 |  | > 100 | 39.7 | 36.4 | 38.7 | > 100 | 43.8 | 34.7 | 41.4 | 58.2 |  |  |
| COc1ccc2c(c1)c(Cc1c(C)n(C)c3ccc(OC)cc13)c(C)n2C | > 100 | > 100 | > 100 | > 100 | > 100 | > 100 | > 100 | > 100 | > 100 | > 100 | > 100 |  |  |
| O=C(O)Cc1cc(=O)oc2cc(O)c(Cl)cc12 | > 100 | > 100 | > 100 | > 100 | > 100 | > 100 | > 100 | > 100 |  | > 100 | > 100 |  |  |
| CC1CN=C(NCc2ccccc2)S1 (stereo unspecified) | > 100 | > 100 | > 100 |  | > 100 |  | > 100 |  | > 100 | > 100 | > 100 |  | > 100 |
| CC(=O)NNC=N/C(C#N)=C(\N)C#N | > 100 | > 100 | > 100 |  | > 100 | > 100 | > 100 | > 100 |  | > 100 | > 100 | > 100 | > 100 |
| CN(C(=O)C1=CCCCCC1)c1ccccc1I |  |  | 80.4 |  |  | > 100 | > 100 | > 100 | > 100 | > 100 | 95.9 | 68.7 | > 100 |
| CCCCCCCCCCCCCCCC(=O)NC1CCc2cc(O)c(O)c(O)c2-c2ccc(SC)c(=O)cc21 (stereo unspecified) | 9.2 | 14.6 | 39.7 | 8.28 | 27.8 | 13.7 | > 40.7 | 15.5 | 7.66 | 20.9 | 23 |  |  |
| c1ccc(C2=NN(c3ccccc3)C3(S2)SC(c2ccccc2)(c2ccccc2)c2ccccc23)cc1 (stereo unspecified) | > 100 | > 100 | > 100 | > 100 | > 100 | > 100 | > 100 | > 100 |  | > 100 | > 100 |  |  |
| COc1ccc(CCN2CCC(C#N)(c3ccc(OC)c(OC)c3)CC2)cc1OC | > 100 | > 100 | > 100 | > 100 | > 100 | > 100 | > 100 | > 100 | > 100 | > 100 | > 100 |  |  |
| COc1ccc2c(OC)c3ccoc3nc2c1O | > 100 | > 100 | > 100 |  | > 100 | > 100 | > 100 | > 100 |  | > 100 | > 100 |  |  |
| CC(=O)OC1[C@H]2c3cc4c(cc3CN3CCC(C[C@@H]1OC(C)=O)C23)OCO4 (stereo partly specified) | > 75 | > 75 | > 75 |  | > 75 | > 75 | > 75 | > 75 | > 75 | > 75 | > 75 |  |  |
| COC(=O)c1c/c(=N\NC(=O)CC(=O)Nc2ccccc2Cl)c2ccccc2o1 | > 100 | > 100 | > 100 |  | > 100 | > 100 | > 100 | > 100 |  | > 100 | > 100 |  |  |
| Oc1cn(-c2ccc(Cl)cc2)nc1-c1nnc(Nc2ccccc2)o1 | 30.8 | 35.4 | 72.8 |  | 22 | 39.2 |  | 43.3 | 39.6 | 34.9 | 33.7 | 30.1 | 34.3 |
